Series [1] concerns MDA-MB-435s (SK3+). As to the kind of experiment: Cell migration / 2D motility assay (transwell inserts, wound healing). Conditions: for Effect on cell migration: summary of table 2. Format: cell-based, human. From the text: Alternatively, the cell migration inhibitory activity of a compound of formula (I) may be assessed by performing a Wound Healing assay that is disclosed in the examples herein and for which the one skilled in the art may also refer to the article of Rodriguez et al. (2005, Methods Biol Mol, Vol. 294: 23-29). The wound-healing assay is simple, inexpensive, and one of the earliest developed methods to study directional cell migration in vitro. This method mimics cell migration during wound healing in vivo. The basic steps involve creating a “wound” in a cell monolayer, capturing the images at the beginning and at regular intervals during cell migration to close the wound, and comparing the images to quantify the migration rate of the cells. It is particularly suitable for studies on the effects of cell-matrix and cell-cell interactions on cell migration. Cells are seeded in culture dishes and grown until confluence in DMEM supplemented with 10% foetal calf serum. The monolayer is then scratched with a sterile yellow pipette tip. Then, migration of cells to the cleared area is inspected under a microscope. Pictures are taken directly at the time of scratching and after 24 h, so as to determine the ability of the tested cells to migrate.
Wound healing assay: Cells were seeded in culture dishes and grown until confluence in DMEM supplemented with 10% foetal calf serum. The monolayer was scratched with a sterile yellow pipette tip. The migration of cells to the cleared area was inspected under a microscope. Pictures were taken directly at the time of scratching and after 24 h.
At least three independent experiments were each performed in triplicate.

For series [2], the system named is MDA-MB-435s.
Series [3] has as its target SK3/KCa2.3 channel (Homo sapiens, UniProt Q9UGI6). Put plainly: Whole-cell patch clamp on HEK293 cells expressing SK3. Format: cell-based. The arrangement: expressed in transfected cells; host or cells: HEK293, lentiviral transduction, clonal selection. The following applies: for Conductance decreasing / Inhibition of I at 0 mV: HEK 293 LvSK3 cells; for Inhibition of I at 0 mV: 10 μM stated for JPH1701; for Effect on SK3 activity: less effect than JPH1701. The method, then:
The percentages of inhibition represent the ratio (SK3 current amplitude and chord conductance (in the presence of 10 μM JPH1701)/SK3 current amplitude in control experiments). Black bars show current at 0 mV and grey bars indicate the chord conductance. […] Columns, mean, bars, SEM, (5 cells for racemic mix and 4 cells for + and − forms).
MDA-MB-435s and HEK293 cells were transduced with lentiviral vector at multiplicities of infection (MOI) of 1 to 3 in the presence of polybrene (4 μg/ml, Sigma).
Experiments were performed with cells seeded into 35-mm Petri dishes at 3000 cells per cm2. All experiments were performed using the conventional whole-cell recording configuration of the patch-clamp technique as previously described. PCa solution was 7 and 6.4 respectively for MDA-MB-435s and HEK293-SK3/KCa2.3 cells.
Briefly, experiments were conducted using Axopatch 200B patch-clamp amplifier (Axon Instrument) and data, digitized with 1322-A Digidata converter (Axon Instrument), were stored on a computer using Clampex of pClamp 9.2 software (Axon Instru-ment). The patch-clamp data was analyzed using both Clampfit 9.2 and Origin 7.0 software (Microcal Inc., Northampton, Mass., USA).
The pipette solution for the whole-cell recordings contained (in mM): K-glutamate 125, KCl 20, MgCl2 1, Mg-ATP 1, HEPES 10, and pH was adjusted to 7.2 with KOH and various concentrations of CaCl2 and EGTA were added to obtain calculated pCa=7 (0.37 mM CaCl2 and 10 mM EGTA) or pCa=6.4 (0.7 mM CaCl2 and 1 mM EGTA).
We next developed HEK cells expressing SK3/KCa2.3 channel in order to test directly analogues on SK3 activity measured using patch-clamp technique (FIG. 8). […] The JPH1701-induced inhibition of SK3 current was analysed at 0 mV and the entire time course of the experiment is depicted in FIG. 8A.
Current activity has been measured in HEK 293 LvSK3 and in MDA-MB-435s cells. The percentages represent the inhibition of current and of conductance by compounds on SK3 channel in HEK 293 cells.

Series [4] deals with MDA-MB-435s. Put plainly: Cytotoxicity / cell viability (MTT, tetrazolium salt reduction).
Test in series [5]: as above
The following applies: human.

The target of series [6] is T1, PAF receptor (Homo sapiens, UniProt P25105). As to the kind of experiment: PAF receptor agonist response (increase of intracellular calcium). The following applies: 0.3 and 2 μM, FIG. 11B. Format: cell-based. The method, then:
(§1) FIG. 11: Effects of JPH1701 on PAF receptor, PLC and PKCs activities. FIG. 11A) Histogram showing the percentage of control specific binding of 3H-C16-PAF to recombinant PAF receptor obtained from membrane homogenates of CHO cells by 0.3 and 2 μM edelfosine and by 0.3 and 2 μM JPH1701. FIG. 11B) Histogram showing the percentage of control agonist response (% effect i.e: increase of intracellular calcium concentration) of 0.3 and 2 μM edelfosine and JPH1701 on PAF receptor normalized to the response induced by 100 nM C16-PAF. […] FIG. 11C-D) Dose responses curves showing the effect of JPH1701 on PKCs (FIG. 11C, PKCs are: alpha, Beta 1, Beta 2, Gamma, Delta, Epsilon, Zeta, Eta, Theta, Iota) and PhosphoLipase C (PLC) activities (FIG. 11D).
(In general: Calcium assays in cells follow changes in intracellular calcium, usually with a dye or a luminescent sensor.)

For series [7], the target named is PhosphoLipase C (PLC). Put plainly: PhosphoLipase C activity. Format: biochemical. Conditions: FIG. 11D. The method, then:
as §1

The target of series [8] is T1, PAF receptor. Put plainly: 3H-C16-PAF binding, membrane homogenates of CHO cells. On the set-up: expressed in transfected cells; host or cells: CHO cells (membrane homogenates). Conditions: 0.3 and 2 μM, FIG. 11A. The method, then:
as §1

Setting [9] is: Table 2, viability of MDA-MB-435s.
Where [10] appears, read: Homo sapiens, MDA-MB-435S, Table 2, concentration 300 nM.

Each structure is given as a SMILES string. Like-named read-outs stand apart in the source and are kept apart here.

T1 sequence (P25105 whole entry): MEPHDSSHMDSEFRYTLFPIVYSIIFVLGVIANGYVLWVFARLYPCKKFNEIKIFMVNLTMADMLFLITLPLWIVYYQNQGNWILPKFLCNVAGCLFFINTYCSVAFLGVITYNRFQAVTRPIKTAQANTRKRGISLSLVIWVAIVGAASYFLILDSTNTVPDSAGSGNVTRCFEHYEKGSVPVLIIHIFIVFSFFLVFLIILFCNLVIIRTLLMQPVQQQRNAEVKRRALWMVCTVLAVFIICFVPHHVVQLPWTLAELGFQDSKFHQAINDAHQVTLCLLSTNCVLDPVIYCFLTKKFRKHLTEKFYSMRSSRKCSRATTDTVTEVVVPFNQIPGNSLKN

On to `CCCCCOCC(O)CO[C@@H]1O[C@H](CO)[C@@H](O)[C@H](O)[C@H]1O` (some centres unmarked) [HCG451], for which the “Migration (% of inhibition)” value in series [1] (Table 2, concentration 300 nM) is listed as “No effect”. For the same compound, in series [1], the “Effect on cell migration” value is reported as “ineffective in cell migration”. Further, the Toxicity result in series [2] is “No until 100 μM”.

As for `CCCCCCCCCCCCCCCCOCC(O)CO` (centres unmarked) [GS 1361], the “Migration (% of inhibition)” value in series [1] (Table 2, concentration 300 nM) came out at 40%. Moreover, the Toxicity result in series [2] is on record as “No at 10 μM”.

Consider `CCCCCCCCCCCCCCCCCCOCC(CO[C@@H]1O[C@H](CO)[C@@H](O[C@@H]2O[C@H](CO)[C@H](O)[C@H](O)[C@H]2O)[C@H](O)[C@H]1O)OC` (some centres unmarked) [JPH 1731], for which the “Migration (% of inhibition)” value in series [1] (Table 2, concentration 100 nM) stood at 30%.

As for `CCCCCCCCCCCCCCCCOC[C@H](CO[C@@H]1O[C@H](COC(C)=O)[C@@H](O[C@H]2O[C@H](COC(C)=O)[C@@H](OC(C)=O)[C@H](OC(C)=O)[C@H]2OC(C)=O)[C@H](OC(C)=O)[C@H]1OC(C)=O)OC` [JPH1880], in series [3], the Conductance decreasing is recorded as 46.1 ± 6.1% and the “Inhibition of I at 0 mV” value is given as 44.7 ± 5.0%.

A word on the IC50: it is the midpoint of a concentration-inhibition curve. As for `CCCCCCCCCCCCCCCCOCC(CO)OC` (centres unmarked) [JPH 1597], the “Migration (% of inhibition)” value in series [1] (Table 2, concentration 300 nM) was “No effect”. The “Effect on cell migration” value in series [1] is “decrease its inhibitory effect on cell migration”. The Toxicity result in series [2] is “No at 10 μM”. Also, the IC50 in series [4] (setting [9]) was roughly 50 µM.

`CCCCCCCCCCCCCCCCOCC(COP(=O)([O-])OCC[N+](C)(C)C)OC(C)=O` (centres unmarked) [PAF, reference compound]: the “Migration (% of inhibition)” value in series [1] (Table 2, concentration 300 nM) is reported as “No effect”. Moreover, the “Effect on cell migration” value in series [1] was “no effect on cell migration”. Also, the Toxicity result in series [4] (setting [9]) is “No until 100 μM”.

Take `CCCCCOCC(O)CO[C@@H]1O[C@H](COC(C)=O)[C@@H](OC(C)=O)[C@H](OC(C)=O)[C@H]1OC(C)=O` (some centres unmarked) [HCG450]: the Toxicity result in series [2] was “Yes at 10 μM”. Moreover, the IC50 in series [4] (setting [9]) was roughly 30 µM.

For `CCCCCCCCCCCCCCCCOCC(CO[C@@H]1O[C@H](COC(C)=O)[C@H](OC(C)=O)[C@H](OC(C)=O)[C@H]1OC(C)=O)OC` (some centres unmarked) [JPH 1519], the “Migration (% of inhibition)” value in series [1] (Table 2, concentration 100 nM) came to 20%.

For `CCCCCCCCCCCCCCCCOCC(COP(=O)(O)OCC[N+](C)(C)C)OC` (centres unmarked) [JPH 1321], the inhibition at 0.1 µM in series [1] (Homo sapiens, MDA-MB-435S, Table 1, concentration 100 nM, read-out: Cell Migration inhibition of MDA-MB-435s (SK3+), Inhibitory effect) was 50%. Besides, the IC50 at 24 h in series [5] (MDA-MB-435s cells) is roughly 30 µM.

In the case of `CCCCCCCCCCCCCCCCOCC(CO[C@@H]1O[C@H](CO)[C@H](O)[C@H](O)[C@H]1O)OC` (some centres unmarked) [JPH 1524], the “Migration (% of inhibition)” value in series [1] (Table 2, concentration 300 nM) came to 20%. Further, in series [2], the Toxicity entry is recorded as “Yes at 10 μM”. In addition, in series [4] (setting [9]), the IC50 was roughly 10 µM.

In series [1] (Homo sapiens, MDA-MB-435S, Table 2, concentration 10 nM), `CCCCCCCCCCCCCCCCCCOCC(COP(=O)([O-])OCC[N+](C)(C)C)OC` (centres unmarked) [Edelfosine, reference compound] yielded an inhibition at 0.01 µM of 60%. This compound showed an inhibition at 0.3 µM in series [1] (setting [10]) of 80%. In series [6], the “PAF receptor agonist response” value is “dose-dependently increase intracellular calcium”. Besides, the IC50 is 2.5 µM in series [7] and roughly 5 µM in series [4] (Homo sapiens, MDA-MB-435S). Moreover, the IC50 at 24 h in series [5] (MDA-MB-435s cells (metastatic cancer cell line)) is less than 5 µM. In series [4] (setting [9]), the Toxicity result is recorded as “Yes at 10 μM”. Moreover, the “Interaction with C16-PAF binding site of PAF receptor” value in series [8] was “able to interact”.

Take `CCCCCCCCCCCCCCCCOC[C@H](CO[C@@H]1O[C@H](COC(C)=O)[C@@H](O[C@@H]2O[C@H](COC(C)=O)[C@H](OC(C)=O)[C@H](OC(C)=O)[C@H]2OC(C)=O)[C@H](OC(C)=O)[C@H]1OC(C)=O)OC` [JPH1700]: in series [3], the Conductance decreasing is listed as 18.1 ± 2.3%, the “Inhibition of I at 0 mV” value is given as 22.8 ± 2.1% and the “Effect on SK3 activity” value was “reduced SK3 activity”.

On to `CCCCCCCCCCCCCCCCCCOP(=O)([O-])OCC[N+](C)(C)C` [SK55], for which the “Effect on cell migration” value in series [1] is “ineffective on cell migration”. Also, the IC50 in series [4] (setting [9]) is roughly 20 µM.

As for `CCCCCCCCCCCCCCCCOCC(COP(=O)(O)OC1OC(COC(C)=O)C(OC2OC(COC(C)=O)C(OC(C)=O)C(OC(C)=O)C2OC(C)=O)C(OC(C)=O)C1OC(C)=O)OC.CCN(CC)CC` (mixture of isomers) [CHS31], in series [3], the Conductance decreasing was found to be 38.9 ± 5.5%, the “Inhibition of I at 0 mV” value was determined as 42.5 ± 8.2% and the “Effect on SK3 activity” value was “reduced SK3 activity”.

Regarding `CCCCCCCCCCCCCCCCOC[C@H](CO[C@@H]1O[C@H](CO[C@H]2O[C@H](COC(C)=O)[C@H](OC(C)=O)[C@H](OC(C)=O)[C@H]2OC(C)=O)[C@@H](OC(C)=O)[C@H](OC(C)=O)[C@H]1OC(C)=O)OC` [JPH1874], in series [3], the Conductance decreasing is recorded as 34.1 ± 6.8% and the “Inhibition of I at 0 mV” value came out at 44.0 ± 5.5%.

In series [1] (setting [10]), `CCCCCCCCCCCCCCCCOP(=O)([O-])OCC[N+](C)(C)C` [Miltefosine, reference compound] yielded an inhibition at 0.3 µM of 20%. Further, the “Effect on cell migration” value in series [1] is “ineffective on cell migration”. The IC50 in series [4] (Homo sapiens, MDA-MB-435S) was roughly 10 µM.

The values are drawn from patent US9161944B2, “Method for preventing cancer metastasis” (INSERM (INSTITUT NATIONAL DE LA SANTE ET DE LA SANTE ET DE …, priority 2010, dated 2015).
